Measurements: patent publication US20100160454A1, “ANTIMICROBIAL AGENTS, COMPOSITIONS AND PRODUCTS CONTAINING THE SAME, AND METHODS OF USING THE COMPOSITIONS AND PRODUCTS” (Eastman Chemical Company, priority 2008, published 2010)

How the values were obtained:
Assay in all cases: Challenge testing against pathogenic fungi, growth rating in broth tubes
Format in all cases: cell-based
Parameters in all cases: key: 0: No visible growth; 1: Some growth in tube; 2: Moderate growth in tube; 3: Good growth in tube; 4: Extreme growth in tube
[1] = tested on: Malassezia furfur (ATCC 96809); settings: Malassezia furfur
Experimental: (§1) Both Microsporum canis and Trichophyton rubrum were grown on Sabouraud dextrose broth, while Malassezia fufur was grown in Sabouraud dextrose broth supplemented with 2% (v/v) of olive oil and 0.2% (v/v) of Tween™ 80; incubation was at 22°±2° C. under continuous agitation by stirring for 10 days. The organisms were grown to a density of between 1.0×10^3 to 1.0×10^4 cfu/g. The actual inoculation cell density of these challenges were determined by diluting in sterile buffer water and (spread-plate method) plating for enumeration.
(§2) Challenge organisms were used to inoculate tubes of 1,4-CHDM-D90 test concentrations prepared in Sabouraud dextrose broth (or Sabouraud dextrose broth supplemented with olive oil-Tween™ 80 with M. furfur). The inoculations were in the amount of 1.5 mL aliquots of each culture with static incubation at 22±2° C. Subcultures were made at 3-, 14- and 30-day increments. All challenges were conducted in triplicate. In the case of M. canis, the growth response was assessed by the visual presence/absence of growth in the tubes; in the case of T. rubrum, a respiratory (redox) dye (0.2% w/v aqueous INT solution: 2-[4-iodophenyl)-3-4-nitrophenyl]-5-phenyl tetrazolium chloride) was added to the tubes, turning red if the organism was viable; and, finally, in the case of M. furfur, the growth response was assessed based upon pellicle formation in the tubes at the meniscus. The test formulations and challenge test results, as well as 30-day MICs (Minimum Inhibitory Concentration), are in Tables 7-9 for the three organisms using the following growth rating system:
(§3) • 0: No visible growth • 1: Some growth in tube • 2: Moderate growth in tube • 3: Good growth in tube • 4: Extreme growth in tube

[2] = tested on: Microsporum canis (ATTC 9084); settings: Microsporum canis
Experimental: as §1, §2, §3

[3] = tested on: Trichophyton rubrum (ATCC 10218); settings: Trichophyton rubrum
Experimental: as §1, §2, §3

[4] = test concentration 0.5%, 3 days
[5] = test concentration 0.5%, 14 days
[6] = test concentration 0.5%, 30 days
[7] = test concentration 1.25%, 3 days
[8] = test concentration 1.25%, 14 days
[9] = test concentration 1.25%, 30 days
[10] = test concentration 2.5%, 3 days
[11] = test concentration 2.5%, 14 days
[12] = test concentration 2.5%, 30 days

Measured: Growth Rating

OCC1CCC(CO)CC1 (stereo not drawn) [1,4-CHDM-D90, 1,4-cyclohexanedimethanol]
1/1/1: [3]; [4] | [3]; [5] | [3]; [6]
2: [1]; [6] | [2]; [4] | [2]; [7] | [2]; [10]
0/0/0: [1]; [7] | [1]; [8] | [1]; [9] | [1]; [10] | [1]; [11] | [1]; [12] | [1]; test concentration 5%, 3 days | [1]; test concentration 5%, 14 days | [1]; test concentration 5%, 30 days | [2]; test concentration 5%, 3 days | [2]; test concentration 5%, 14 days | [2]; test concentration 5%, 30 days | [3]; [7] | [3]; [8] | [3]; [9] | [3]; [10] | [3]; [11] | [3]; [12]
0: [1]; [4] | [2]; [11] | [2]; [12] | [3]; test concentration 5%, 14 days | [3]; test concentration 5%, 30 days
1: [1]; [5] | [2]; [5] | [2]; [6] | [2]; [8] | [2]; [9] | [3]; test concentration 5%, 3 days
